Measured values published in patent publication US20100311714A1, “1H-IMIDAZO[4,5-c]QUINOLINONE COMPOUNDS” (priority 2009, published 2010).
pIC50: −log10 of the molar value. Read-outs that look alike come from different tables or passages of the source.

Experiments:
[1] = target: T1, PI3K alfa (Homo sapiens, UniProt P42336); experiment: PI3K alpha kinase assay (Kinase-Glo luminescence); assay type: biochemical
T1 construct: His tag (C); made in house; host or cells: baculovirus BV1075; Tn5 (Trichoplusia ni) or TiniPro insect cells
In short: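 IC50 values come from a four-parameter logistic fit of percent inhibition at eight concentrations, typically 10 to 0.003 μM. Recombinant PI3Kα at 10 nM turned over 1 μM ATP with 10 μg/mL PI for 60 min at room temperature, and residual ATP was measured by Kinase-Glo.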

[2] = system: S6 Ribosomal Protein phosphorylation Ser235/236 in TSC1 null mouse embryo fibroblast (MEF) cells; experiment: Reverse protein array, S6 Ribosomal Protein phosphorylation in TSC1 null MEF cells; assay type: cell-based; conditions: 1 h, TSC1-/- MEFs, 60 minutes
In short: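 Phospho-S6 (Ser235/236) was quantified by reverse protein array of cell lysates with a phospho-specific primary antibody. […]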

T1 sequence (P42336 with tags, fused parts or gaps limits assumed): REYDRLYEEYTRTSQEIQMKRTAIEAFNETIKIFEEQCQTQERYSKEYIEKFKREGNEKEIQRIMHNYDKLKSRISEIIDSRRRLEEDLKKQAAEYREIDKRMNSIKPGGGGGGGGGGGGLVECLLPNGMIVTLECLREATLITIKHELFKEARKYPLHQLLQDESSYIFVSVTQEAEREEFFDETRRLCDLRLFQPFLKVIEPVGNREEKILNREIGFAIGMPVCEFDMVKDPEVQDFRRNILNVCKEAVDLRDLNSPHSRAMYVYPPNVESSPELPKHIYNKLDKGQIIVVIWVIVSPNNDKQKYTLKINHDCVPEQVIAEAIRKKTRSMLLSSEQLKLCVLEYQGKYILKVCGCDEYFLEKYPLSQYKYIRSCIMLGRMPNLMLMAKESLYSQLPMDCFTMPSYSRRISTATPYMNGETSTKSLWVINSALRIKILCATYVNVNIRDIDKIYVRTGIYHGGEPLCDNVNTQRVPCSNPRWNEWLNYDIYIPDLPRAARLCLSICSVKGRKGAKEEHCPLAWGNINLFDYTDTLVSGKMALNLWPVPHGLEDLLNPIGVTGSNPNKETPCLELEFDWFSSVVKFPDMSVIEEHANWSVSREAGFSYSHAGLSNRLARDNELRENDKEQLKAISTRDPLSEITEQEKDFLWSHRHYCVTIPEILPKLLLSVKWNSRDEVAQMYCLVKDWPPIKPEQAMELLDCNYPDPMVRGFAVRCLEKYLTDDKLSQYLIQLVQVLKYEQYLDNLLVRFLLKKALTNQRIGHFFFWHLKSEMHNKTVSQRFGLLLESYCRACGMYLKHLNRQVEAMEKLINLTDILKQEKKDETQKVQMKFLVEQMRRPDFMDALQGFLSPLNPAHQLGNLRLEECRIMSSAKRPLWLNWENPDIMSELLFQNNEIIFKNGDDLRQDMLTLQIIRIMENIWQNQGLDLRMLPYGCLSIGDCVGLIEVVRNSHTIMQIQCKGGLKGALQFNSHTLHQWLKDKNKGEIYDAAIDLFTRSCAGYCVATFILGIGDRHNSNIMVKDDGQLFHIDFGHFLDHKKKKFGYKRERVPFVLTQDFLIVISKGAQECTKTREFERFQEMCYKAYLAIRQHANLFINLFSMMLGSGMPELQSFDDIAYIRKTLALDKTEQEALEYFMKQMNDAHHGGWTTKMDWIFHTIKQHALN

Structure (SMILES)	pIC50 ([1]; read-out: EPK_PI3Kalfa/IC50)	pIC50 ([1]; read-out: PI3Kalfa/IC50)	pIC50 ([2]; read-out: p-S6 IC50)	pIC50 ([2]; read-out: p-S6)
CCNc1cc(-c2ccc3ncc4c(c3c2)n(-c2ccc(N(C)CCO)nc2C)c(=O)n4C)cnc1CO [Example 26.3, 8-(5-Ethylamino-6-hydroxymethyl-pyridin-3-yl)-1-{6-[(2-hydroxy-ethyl)-methyl-amino]-2-methyl-pyridin-3-yl}-3-methyl-1,3-dihydro-imidazo[4,5-c]quinolin-2-one]	7.08	–	–	–
Cc1nc(F)ccc1-n1c(=O)n(C)c2cnc3ccc(-c4cncc(N5CCC5)c4)cc3c21 [Example 7.6, 8-(5-Azetidin-1-yl-pyridin-3-yl)-1-(6-fluoro-2-methyl-pyridin-3-yl)-3-methyl-1,3-dihydro-imidazo[4,5-c]quinolin-2-one]	7.17	–	8.15	–
CNC(=O)c1ccc(-c2ccc3ncc4c(c3c2)n(-c2cccnc2C)c(=O)n4C)cc1 [Example 2.4, N-Methyl-4-[3-methyl-1-(2-methyl-pyridin-3-yl)-2-oxo-2,3-dihydro-1H-imidazo[4,5-c]quinolin-8-yl]-benzamide]	–	7.54	–	7.64
CCOc1ccc(-c2ccc3ncc4c(c3c2)n(-c2ccc(N3CCC(O)C3)nc2C)c(=O)n4C)cn1 (centres unmarked) [Example 27.4, 8-(6-Ethoxy-pyridin-3-yl)-1-[6-(3-hydroxy-pyrrolidin-1-yl)-2-methyl-pyridin-3-yl]-3-methyl-1,3-dihydro-imidazo[4,5-c]quinolin-2-one]	7.41	–	–	–
Cc1ncccc1-n1c(=O)n(C)c2cnc3ccc(-c4cnc5[nH]ccc5c4)cc3c21 [Example 2.8, 3-Methyl-1-(2-methyl-pyridin-3-yl)-8-(1H-pyrrolo[2,3-b]pyridin-5-yl)-1,3-dihydro-imidazo[4,5-c]quinolin-2-one]	–	7.59	–	–
COc1ccc(-n2c(=O)n(C)c3cnc4ccc(-c5cnc(C(OC)OC)c(OC)c5)cc4c32)c(OC)n1 [Example 8.13, 8-(6-Dimethoxymethyl-5-methoxy-pyridin-3-yl)-1-(2,6-dimethoxy-pyridin-3-yl)-3-methyl-1,3-dihydro-imidazo[4,5-c]quinolin-2-one]	6.61	–	7.82	–
COCc1ncc(-c2ccc3ncc4c(c3c2)n(-c2ccc(F)nc2C)c(=O)n4C)cc1OC [Example 7.7, 1-(6-Fluoro-2-methyl-pyridin-3-yl)-8-(5-methoxy-6-methoxymethyl-pyridin-3-yl)-3-methyl-1,3-dihydro-imidazo[4,5-c]quinolin-2-one]	6.90	–	6.95	–
COc1ccc(-n2c(=O)n(C)c3cnc4ccc(-c5cncc(N6CCC6)c5)cc4c32)c(OC)n1 [Example 8.11, 8-(5-Azetidin-1-yl-pyridin-3-yl)-1-(2,6-dimethoxy-pyridin-3-yl)-3-methyl-1,3-dihydro-imidazo[4,5-c]quinolin-2-one]	6.44	–	9.00	–
COc1cc(-c2ccc3ncc4c(c3c2)n(-c2ccc(N)nc2C)c(=O)n4C)cnc1CO [Example 30.1, 1-(6-Amino-2-methyl-pyridin-3-yl)-8-(6-hydroxymethyl-5-methoxy-pyridin-3-yl)-3-methyl-1,3-dihydro-imidazo[4,5-c]quinolin-2-one]	7.27	–	–	–
COCc1ncc(-c2ccc3ncc4c(c3c2)n(-c2cccnc2C)c(=O)n4C)cc1OC [Example 2.30, 8-(5-Methoxy-6-methoxymethyl-pyridin-3-yl)-3-methyl-1-(2-methyl-pyridin-3-yl)-1,3-dihydro-imidazo[4,5-c]quinolin-2-one]	7.12	–	7.47	–
CNc1ncc(-c2ccc3ncc4c(c3c2)n(-c2ccc(N3CC[C@@H](O)C3)nc2C)c(=O)n4C)cn1 [Example 34.1, 1-[6-((R)-3-Hydroxy-pyrrolidin-1-yl)-2-methyl-pyridin-3-yl]-3-methyl-8-(2-methylamino-pyrimidin-5-yl)-1,3-dihydro-imidazo[4,5-c]quinolin-2-one]	7.01	–	8.52	–
COc1ccc(-n2c(=O)n(C)c3cnc4ccc(-c5cnc(CO)c(OC)c5)cc4c32)c(OC)n1 [Example 8.14, 1-(2,6-Dimethoxy-pyridin-3-yl)-8-(6-hydroxymethyl-5-methoxy-pyridin-3-yl)-3-methyl-1,3-dihydro-imidazo[4,5-c]quinolin-2-one]	7.23	–	–	–
Cn1c(=O)n(-c2cccnc2F)c2c3cc(-c4cnc5[nH]ccc5c4)ccc3ncc21 [Example 6.3, 1-(2-Fluoro-pyridin-3-yl)-3-methyl-8-(1H-pyrrolo[2,3-b]pyridin-5-yl)-1,3-dihydro-imidazo[4,5-c]quinolin-2-one]	–	7.39	–	–
COc1cc(-c2ccc3ncc4c(c3c2)n(-c2ccc(N3CC(F)(F)C3)nc2C)c(=O)n4C)cnc1CO [Example 24.4, 1-[6-(3,3-Difluoro-azetidin-1-yl)-2-methyl-pyridin-3-yl]-8-(6-hydroxymethyl-5-methoxy-pyridin-3-yl)-3-methyl-1,3-dihydro-imidazo[4,5-c]quinolin-2-one]	7.25	–	–	–

More lines, in order of rising pIC50 ([1]; read-out: EPK_PI3Kalfa/IC50), values ahead:

pIC50 ([1]; read-out: EPK_PI3Kalfa/IC50)	pIC50 ([1]; read-out: PI3Kalfa/IC50)	Structure (SMILES)	pIC50 ([2]; read-out: p-S6 IC50)	pIC50 ([2]; read-out: p-S6)
7.47	–	CNc1ncc(-c2ccc3ncc4c(c3c2)n(-c2ccc(N3CCC(OC)C3)nc2C)c(=O)n4C)cn1 (centres unmarked) [Example 28.2, 1-[6-(3-Methoxy-pyrrolidin-1-yl)-2-methyl-pyridin-3-yl]-3-methyl-8-(2-methylamino-pyrimidin-5-yl)-1,3-dihydro-imidazo[4,5-c]quinolin-2-one]	9.00	–
7.55	–	CCNc1cc(-c2ccc3ncc4c(c3c2)n(-c2ccc(N3CCCC3)nc2C)c(=O)n4C)cnc1CO [Example 25.5, 8-(5-Ethylamino-6-hydroxymethyl-pyridin-3-yl)-3-methyl-1-(2-methyl-6-pyrrolidin-1-yl-pyridin-3-yl)-1,3-dihydro-imidazo[4,5-c]quinolin-2-one]	–	–
7.57	–	COc1cc(-c2ccc3ncc4c(c3c2)n(-c2ccc(N3CCCC3)nc2C)c(=O)n4C)cnc1CO [Example 25.4, 8-(6-Hydroxymethyl-5-methoxy-pyridin-3-yl)-3-methyl-1-(2-methyl-6-pyrrolidin-1-yl-pyridin-3-yl)-1,3-dihydro-imidazo[4,5-c]quinolin-2-one]	8.15	–
7.57	–	CCNc1cc(-c2ccc3ncc4c(c3c2)n(-c2ccc(N3CC(F)(F)C(F)(F)C3)nc2C)c(=O)n4C)cnc1CO [Example 35.2, 8-(5-Ethylamino-6-hydroxymethyl-pyridin-3-yl)-3-methyl-1-[2-methyl-6-(3,3,4,4-tetrafluoro-pyrrolidin-1-yl)-pyridin-3-yl]-1,3-dihydro-imidazo[4,5-c]quinolin-2-one]	9.00	–
7.59	–	COc1cc(-c2ccc3ncc4c(c3c2)n(-c2ccc(N3CC[C@H](O)C3)nc2C)c(=O)n4C)cnc1CO [Example 32.7, 8-(6-Hydroxymethyl-5-methoxy-pyridin-3-yl)-1-[6-((S)-3-hydroxy-pyrrolidin-1-yl)-2-methyl-pyridin-3-yl]-3-methyl-1,3-dihydro-imidazo[4,5-c]quinolin-2-one]	7.67	–
7.62	–	COc1cc(-c2ccc3ncc4c(c3c2)n(-c2ccc(F)nc2C)c(=O)n4C)cnc1CO [Example 7.10, 1-(6-Fluoro-2-methyl-pyridin-3-yl)-8-(6-hydroxymethyl-5-methoxy-pyridin-3-yl)-3-methyl-1,3-dihydro-imidazo[4,5-c]quinolin-2-one]	7.82	–
7.64	–	COc1cc(-c2ccc3ncc4c(c3c2)n(-c2ccc(N3CCC(OC)C3)nc2C)c(=O)n4C)cnc1CO (centres unmarked) [Example 28.3, 8-(6-Hydroxymethyl-5-methoxy-pyridin-3-yl)-1-[6-(3-methoxy-pyrrolidin-1-yl)-2-methyl-pyridin-3-yl]-3-methyl-1,3-dihydro-imidazo[4,5-c]quinolin-2-one]	8.10	–
7.72	–	Cc1nc(N2CC(O)C2)ccc1-n1c(=O)n(C)c2cnc3ccc(-c4cncc(C(C)(C)O)c4)cc3c21 [Example 29.1, 1-[6-(3-Hydroxy-azetidin-1-yl)-2-methyl-pyridin-3-yl]-8-[5-(1-hydroxy-1-methyl-ethyl)-pyridin-3-yl]-3-methyl-1,3-dihydro-imidazo[4,5-c]quinolin-2-one]	7.82	–
7.74	–	CNc1ncc(-c2ccc3ncc4c(c3c2)n(-c2ccc(N3CC[C@H](O)C3)nc2C)c(=O)n4C)cc1Cl [Example 32.4, 8-(5-Chloro-6-methylamino-pyridin-3-yl)-1-[6-((S)-3-hydroxy-pyrrolidin-1-yl)-2-methyl-pyridin-3-yl]-3-methyl-1,3-dihydro-imidazo[4,5-c]quinolin-2-one]	8.40	–
8.00	–	Cc1nc(N2CCC(O)C2)ccc1-n1c(=O)n(C)c2cnc3ccc(-c4cncc(C(C)(C)O)c4)cc3c21 (centres unmarked) [Example 27.5, 8-[5-(1-Hydroxy-1-methyl-ethyl)-pyridin-3-yl]-1-[6-(3-hydroxy-pyrrolidin-1-yl)-2-methyl-pyridin-3-yl]-3-methyl-1,3-dihydro-imidazo[4,5-c]quinolin-2-one]	7.48	–
8.30	–	Cc1nc(N2CCC(O)C2)ccc1-n1c(=O)n(C)c2cnc3ccc(-c4cnc(N)c(C(F)(F)F)c4)cc3c21 (centres unmarked) [Example 27.3, 8-(6-Amino-5-trifluoromethyl-pyridin-3-yl)-1-[6-(3-hydroxy-pyrrolidin-1-yl)-2-methyl-pyridin-3-yl]-3-methyl-1,3-dihydro-imidazo[4,5-c]quinolin-2-one]	–	–
